The text below walks through data of US9314468B2, “Chemokine receptor modulators” (Altiris Therapeutics, Inc., priority 2008, dated 2016).

Molecules are shown by their SMILES.

Chain of CXCR4 (P61073 whole entry): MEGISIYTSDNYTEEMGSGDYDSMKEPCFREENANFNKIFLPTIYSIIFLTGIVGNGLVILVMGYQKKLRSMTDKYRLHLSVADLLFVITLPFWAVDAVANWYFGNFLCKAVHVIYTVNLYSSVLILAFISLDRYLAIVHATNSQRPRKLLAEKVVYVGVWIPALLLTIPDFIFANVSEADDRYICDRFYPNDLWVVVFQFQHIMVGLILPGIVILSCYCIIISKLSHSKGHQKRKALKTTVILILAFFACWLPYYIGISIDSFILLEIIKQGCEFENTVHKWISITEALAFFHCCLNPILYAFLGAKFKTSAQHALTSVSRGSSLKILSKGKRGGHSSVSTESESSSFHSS

The first test concerns the target CXCR4 (Homo sapiens (Human), UniProt P61073). Nature of the test: Functional calcium mobilization assay (SDF-1α induced). The format is cell-based. The following applies: CCRF-CEM, read-out: % inhibition at 1 μM. On the procedure:
Functional modulation of CXCR4 was determined by calcium mobilization assay using leukemic lymphoid CEM cells, which naturally express high levels of CXCR4. Generally, the assay is carried out as follows: Cells are grown in vitro to confluency. On the day of the assay, cells are removed from the incubator, culture medium removed and replaced with a calcium sensitive dye (Calcium3 assay kit; Molecular Devices, Sunnyvale, Calif.). The cells are allowed to dye load for 45-60 min at 37° C. in the cell culture incubator and then allowed to equilibrate to room temperature for no more than 15 min before assay.
Compound plates were generated containing up to 3% dimethyl sulfoxide in media kept at room temperature. Test compounds were added to the cells at a 1:3 dilution, and calcium mobilization was measured using a Flex Station fluorescence imager (Molecular Devices). This first read was used to determine direct agonist activation of the CXCR4 receptor by the test compounds. […] Full dose response curves were generated daily for SDF-1a to calculate IC50 concentrations. The IC50 values are reported. In cases, where one was not determined, a percent inhibition at the 1 μM concentration was extrapolated.
Functional calcium mobilization assay was conducted as described in Example 27.
One may read the inhibition as the change of the read-out against control, counted positive when it falls. For the molecule `NCCCCN(Cc1cn(Cc2ccccc2)nn1)C1CCCc2cccnc21` (stereo not shown), the inhibition at 1 µM was 45%.
Still for that read-out and setting: the figure for `c1ccc(CN(CCCCN(Cc2nccc3c2[nH]c2ccccc23)C2CCCc3cccnc32)Cc2ccccn2)nc1` (stereo not shown) is 27%.
Same read-out and setting: to `NCCCN(Cc1nccc2c1[nH]c1ccccc12)C1CCCc2cccnc21` (stereo not shown) belongs 0%.
The same measure, in the same setting: to `CCN(CC)CCCCN(Cc1nccc2c1[nH]c1ccccc12)C1CCCc2cccnc21` (stereo not shown) belongs 4%; to `NCCN(Cc1nccc2c1[nH]c1ccccc12)C1CCCc2cccnc21` (stereo not shown), 0%.
Take `c1cnc2c(c1)CCCC2N(CCNC1=NCCN1)Cc1nccc2c1[nH]c1ccccc12` (stereo not shown): the inhibition at 1 µM is 0%.
With `c1cnc2c(c1)CCCC2N(CCCNC1=NCCN1)Cc1nccc2c1[nH]c1ccccc12` (stereo not shown), the inhibition at 1 µM worked out at 6%.
`c1cnc2c(c1)CCCC2N(CCCCN(CC1CC1)CC1CC1)Cc1nccc2c1[nH]c1ccccc12` (stereo not shown): the inhibition at 1 µM stood at 0%.
Same read-out and setting: the figure for `c1cnc2c(c1)CCCC2N(CCC1CCNCC1)Cc1nccc2c1[nH]c1ccccc12` (stereo not shown) is 55%.
Regarding `c1cnc2c(c1)CCCC2N(CCN1CCOCC1)Cc1nccc2c1[nH]c1ccccc12` (stereo not shown), the inhibition at 1 µM was 1%.
Still for that read-out and setting: the figure for `c1cnc2c(c1)CCCC2N(CCCN1CCOCC1)Cc1nccc2c1[nH]c1ccccc12` (stereo not shown) is 20%; for `c1cnc2c(c1)CCCC2N(CCN1CCNCC1)Cc1nccc2c1[nH]c1ccccc12` (stereo not shown) it is 0%; for `c1cnc2c(c1)CCCC2N(CCCCN1CCOCC1)Cc1nccc2c1[nH]c1ccccc12` (stereo not shown) it is 49%.
Same read-out and setting: to `CS(=O)(=O)N1CCC(CCN(Cc2nccc3c2[nH]c2ccccc23)C2CCCc3cccnc32)CC1` (stereo not shown) belongs 5%; to `CS(=O)(=O)N1CCN(CCCN(Cc2nccc3c2[nH]c2ccccc23)C2CCCc3cccnc32)CC1` (stereo not shown), 27%.
On the same count and under the same terms, the figure for `c1cnc2c(c1)CCC[C@@H]2NCc1cc2c(cn1)[nH]c1ccccc12` is 39%.
Take `CC(C)(C)OC(=O)N(CCCCN(Cc1nccc2c1[nH]c1ccccc12)[C@H]1CCCc2cccnc21)C(=O)OC(C)(C)C`: the inhibition at 1 µM was 19%.
Still for that read-out and setting: to `CN(Cc1nccc2c1[nH]c1ccccc12)[C@H]1CCCc2cccnc21` belongs 0%.
Same read-out and setting: the figure for `CC(C)CN(CCCCN(Cc1nccc2c1[nH]c1ccccc12)[C@H]1CCCc2cccnc21)CC(C)C` is 23%.
Still for that read-out and setting: to `CC(C)(C)OC(=O)CN(CCCCN(Cc1nccc2c1[nH]c1ccccc12)[C@H]1CCCc2cccnc21)CC(=O)OC(C)(C)C` belongs 18%; to `NCCCCN(C(=O)c1nccc2c1[nH]c1ccccc12)C1CCCc2cccnc21` (stereo not shown), 0%.
With `c1cnc2c(c1)CCC[C@@H]2NCc1nccc2c1[nH]c1ccccc12`, the inhibition at 1 µM came to 0%.
Still for that read-out and setting: the figure for `c1cnc(NCCCCN(Cc2nccc3c2[nH]c2ccccc23)[C@H]2CCCc3cccnc32)nc1` is 0%; for `O=C(NNc1ccccc1)c1ccc(CN(Cc2nccc3c2[nH]c2ccccc23)[C@H]2CCCc3cccnc32)cc1` it is 0%; for `NCCCCN(Cc1cc2c3ccccc3n(CC(=O)N3CCOCC3)c2cn1)[C@H]1CCCc2cccnc21` it is 0%.
On the same count and under the same terms, the figure for `CS(=O)(=O)NCCCCN(Cc1nccc2c1[nH]c1ccccc12)[C@H]1CCCc2cccnc21` is 0%; for `OCCCCN(Cc1nccc2c1[nH]c1ccccc12)[C@H]1CCCc2cccnc21` it is 0%.
On the same count and under the same terms, the figure for `NCc1ccc(CN(Cc2nccc3c2[nH]c2ccccc23)[C@H]2CCCc3cccnc32)cc1` is 0%; for `NCC#CCN(Cc1nccc2c1[nH]c1ccccc12)[C@H]1CCCc2cccnc21` it is 0%; for `CCNC(=O)NCCCCN(Cc1nccc2c1[nH]c1ccccc12)[C@H]1CCCc2cccnc21` it is 0%.
For `NC/C=C/CN(Cc1nccc2c1[nH]c1ccccc12)[C@H]1CCCc2cccnc21`, the inhibition at 1 µM was found to be 20%.
As for `CN(Cc1nccc2c3ccccc3n(CCCCN3C(=O)c4ccccc4C3=O)c12)[C@H]1CCCc2cccnc21`, the inhibition at 1 µM came out at 32%.
Consider `O=C(CN(Cc1nccc2c1[nH]c1ccccc12)[C@H]1CCCc2cccnc21)NC1CCNCC1`, for which the inhibition at 1 µM is 0%.
`O=C1c2ccccc2C(=O)N1CCCn1c2ccccc2c2ccnc(CN[C@H]3CCCc4cccnc43)c21`: the inhibition at 1 µM was 0%.
For `CN(Cc1nccc2c3ccccc3n(Cc3cnn[nH]3)c12)[C@H]1CCCc2cccnc21`, the inhibition at 1 µM amounted to 0%.
The same measure, in the same setting: to `NC1CCN(C(=O)CN(Cc2nccc3c2[nH]c2ccccc23)[C@H]2CCCc3cccnc32)CC1` belongs 0%; to `c1cnc2c(c1)CCC[C@@H]2N(Cc1ccc(N2CCNCC2)cc1)Cc1nccc2c1[nH]c1ccccc12`, 0%; to `CC(C)CN(Cc1nccc2c3ccccc3n(CCCN)c12)[C@H]1CCCc2cccnc21`, 0%.
The same measure, in the same setting: the figure for `O=C(Cn1c2ccccc2c2ccnc(CN(C(=O)CCN3CCNCC3)[C@H]3CCCc4cccnc43)c21)N1CCOCC1` is 0%; for `CC(C)(C)OC(=O)[C@@H](N)CCCN(Cc1nccc2c3ccccc3n(CC(=O)N3CCOCC3)c12)[C@H]1CCCc2cccnc21` it is 0%.
Still for that read-out and setting: the figure for `NCc1ccc(CN(Cc2nccc3c4ccccc4n(CC(=O)N4CCOCC4)c23)[C@H]2CCCc3cccnc32)cc1` is 0%; for `N[C@@H](CCCN(Cc1nccc2c3ccccc3n(CC(=O)N3CCOCC3)c12)[C@H]1CCCc2cccnc21)C(=O)O` it is 0%; for `O=C(Cn1c2ccccc2c2ccnc(CN(Cc3ccc(CNCc4ccccn4)cc3)[C@H]3CCCc4cccnc43)c21)N1CCOCC1` it is 0%.
For the molecule `O=C1CNCCN1CCCN(Cc1nccc2c3ccccc3n(CC(=O)N3CCOCC3)c12)[C@H]1CCCc2cccnc21`, the inhibition at 1 µM turned out to be 0%.

Staying with this test, now noted: CEM cells, SDF-1α challenge at EC80-EC90; read-out: Ca Flux IC50.
As usually defined, the IC50 is the concentration at which inhibition is half-maximal. For `c1ccc(CNCCCCN(Cc2nccc3c2[nH]c2ccccc23)C2CCCc3cccnc32)nc1` (stereo not shown), the IC50 was determined as 5.1 µM.
In the case of `NCCCCN(Cc1ccccn1)Cc1nccc2c1[nH]c1ccccc12`, the IC50 was 1.97 µM.
On the same count and under the same terms, to `Cn1c2ccccc2c2cc(CN(CCCCN)[C@H]3CCCc4cccnc43)ncc21` belongs 0.057 µM; to `c1cnc2c(c1)CCC[C@@H]2N(CCCN1CCNCC1)Cc1cc2c(cn1)[nH]c1ccccc12`, 0.331 µM.
Still for that read-out and setting: to `NCCCCN(Cc1cc2c3ccccc3n(CC(=O)O)c2cn1)[C@H]1CCCc2cccnc21` belongs 0.864 µM; to `CC(C)(C)OC(=O)Cn1c2ccccc2c2cc(CN(CCCCN)[C@H]3CCCc4cccnc43)ncc21`, 0.949 µM.
Still for that read-out and setting: the figure for `NC(=O)NCCCCN(Cc1nccc2c1[nH]c1ccccc12)[C@H]1CCCc2cccnc21` is 6.67 µM; for `CCOC(=O)Cn1c2ccccc2c2ccnc(CN(CCCCN)[C@H]3CCCc4cccnc43)c21` it is 0.015 µM; for `NCCCCN(Cc1nccc2c3ccccc3n(CC(=O)N3CCNCC3)c12)[C@H]1CCCc2cccnc21` it is 0.663 µM.
Regarding `NCCCCN(Cc1nccc2c3ccccc3n(CC(=O)NC3CCNCC3)c12)[C@H]1CCCc2cccnc21`, the IC50 stood at 0.11 µM.
Same read-out and setting: to `NC/C=C\CN(Cc1nccc2c1[nH]c1ccccc12)[C@H]1CCCc2cccnc21` belongs 0.949 µM.
Same read-out and setting: the figure for `NC(=O)CCCN(Cc1nccc2c1[nH]c1ccccc12)[C@H]1CCCc2cccnc21` is 1.44 µM.
Still for that read-out and setting: to `CN(Cc1nccc2c3ccccc3n(CCCCN)c12)[C@H]1CCCc2cccnc21` belongs 3.37 µM; to `CN(Cc1nccc2c3ccccc3n(CCCN3C(=O)c4ccccc4C3=O)c12)[C@H]1CCCc2cccnc21`, 0.217 µM; to `O=C(Cn1c2ccccc2c2ccnc(CN(CCCN3CCNCC3)[C@H]3CCCc4cccnc43)c21)N1CCOCC1`, 0.044 µM.
Turning to `NCCCCN(Cc1nccc2c3ccccc3n(CC(=O)N3CCC(N)CC3)c12)[C@H]1CCCc2cccnc21`, the half-inhibitory concentration (IC50) is 4.39 µM.
Same read-out and setting: to `CN(Cc1nccc2c3ccccc3n(CCN3C(=O)c4ccccc4C3=O)c12)[C@H]1CCCc2cccnc21` belongs 0.329 µM; to `CN(Cc1nccc2c3ccccc3n(CCCN)c12)[C@H]1CCCc2cccnc21`, 1.05 µM; to `CN(Cc1nccc2c3ccccc3n(CCN)c12)[C@H]1CCCc2cccnc21`, 0.142 µM.
Same read-out and setting: the figure for `C#CCn1c2ccccc2c2ccnc(CN(CCCCN)[C@H]3CCCc4cccnc43)c21` is 0.009 µM; for `O=C(CN(Cc1nccc2c1[nH]c1ccccc12)[C@H]1CCCc2cccnc21)N1CCNCC1` it is 1.81 µM.
For the molecule `NCCCCN(Cc1nccc2c3ccccc3n(CCN3CCOCC3)c12)[C@H]1CCCc2cccnc21`, the IC50 came out at 0.004 µM.
Still for that read-out and setting: to `NCCCn1c2ccccc2c2ccnc(CN[C@H]3CCCc4cccnc43)c21` belongs 8.89 µM.
Take `NCCCCN(Cc1nccc2c3ccccc3n(CCO)c12)[C@H]1CCCc2cccnc21`: the IC50 came out at 0.011 µM.
On the same count and under the same terms, the figure for `NCCCCN(Cc1nccc2c3ccccc3n(Cc3ccccn3)c12)[C@H]1CCCc2cccnc21` is 0.031 µM; for `CCN(Cc1nccc2c3ccccc3n(CCCN3C(=O)c4ccccc4C3=O)c12)[C@H]1CCCc2cccnc21` it is 1.64 µM.
Still for that read-out and setting: the figure for `c1ccc(N2CCNCC2)c(CN(Cc2nccc3c2[nH]c2ccccc23)[C@H]2CCCc3cccnc32)c1` is 3.73 µM.
Still for that read-out and setting: to `NCCCCN(Cc1nccc2c3ccccc3n(Cc3ccncc3)c12)[C@H]1CCCc2cccnc21` belongs 0.12 µM; to `CC(C)CN(Cc1nccc2c3ccccc3n(CCCN3C(=O)c4ccccc4C3=O)c12)[C@H]1CCCc2cccnc21`, 6.65 µM.
